These results are taken from ChEMBL document CHEMBL2311376, “Synthesis and antibacterial evaluation of a novel tricyclic oxaborole-fused fluoroquinolone” (2013).

Converted amounts (≈) assume the structure as drawn. Some results are limits rather than exact numbers.

Format in all cases: functional
Test [1] deals with Staphylococcus aureus. Put plainly: Antimicrobial activity against Staphylococcus aureus ATCC 29213 by microbroth dilution assay.
The test system of test [2] is Escherichia coli. The experiment in a line: Antimicrobial activity against Escherichia coli K-12 containing delta-lacU169 tolC::Tn10 gyrA S83L mutant by microbroth dilution assay.
Test [3] has as its system Escherichia coli. The experiment in a line: Antimicrobial activity against Escherichia coli K-12 containing delta-lacU169 mutant by microbroth dilution assay.
In test [4] the test system is Escherichia coli. The experiment in a line: Antimicrobial activity against Escherichia coli K-12 containing delta-lacU169 tolC::Tn10 gyrA D87Y mutant by microbroth dilution assay.
Test [5] has as its system Escherichia coli. The experiment in a line: Antimicrobial activity against Escherichia coli K-12 containing delta-lacU169 tolC::Tn10 mutant by microbroth dilution assay.

Consider `O=c1c2c(n(C3CC3)c3cc(N4CCNCC4)c(F)cc13)COB2O`, for which the MIC in test [1] was found to be 128 µg/mL (≈ 373 µM); in test [2], 64 µg/mL (≈ 186 µM); in test [3], 128 µg/mL (≈ 373 µM); in test [4] it was 32 µg/mL (≈ 93.2 µM); in test [5], 16 µg/mL (≈ 46.6 µM).

Consider `CC(C)(C)OC(=O)N1CCN(c2cc3c(cc2F)c(=O)c2c(n3C3CC3)COB2O)CC1`, for which the MIC in test [1], in test [2], in test [3], in test [4] and in test [5] was more than 256 µg/mL throughout.

As to `O=c1c(Br)c(CO)n(C2CC2)c2cc(N3CCNCC3)c(F)cc12`, the MIC in test [1] is more than 256 µg/mL; in test [2] it was 256 µg/mL (≈ 646 µM); in test [3] it was more than 256 µg/mL; in test [4] it was more than 256 µg/mL; in test [5] it was 128 µg/mL (≈ 323 µM).

Turning to `O=c1cc(CO)n(C2CC2)c2cc(N3CCNCC3)c(F)cc12`, the MIC in test [1], in test [2], in test [3], in test [4] and in test [5] was more than 256 µg/mL in each case.
